# Experimental data as given in US12600726B2, “Antagonists of the muscarinic acetylcholine receptor M4” (Vanderbilt University, priority 2017, dated 2026).
# Legend:
# Rat M4 = biological target: T1, Rat M4 (Rattus norvegicus, UniProt P08485); assay: mAChR M4 cell-based functional calcium flux assay (rat M4/Gqi5/CHO cells); conditions: for Emin (rat M4): % ACh maximum at 30 μM
# T1 construct: expressed in transfected cells; host or cells: CHO-K1 (ATCC), stably expressing M4 and Gqi5
# T1 sequence (P08485 1-478): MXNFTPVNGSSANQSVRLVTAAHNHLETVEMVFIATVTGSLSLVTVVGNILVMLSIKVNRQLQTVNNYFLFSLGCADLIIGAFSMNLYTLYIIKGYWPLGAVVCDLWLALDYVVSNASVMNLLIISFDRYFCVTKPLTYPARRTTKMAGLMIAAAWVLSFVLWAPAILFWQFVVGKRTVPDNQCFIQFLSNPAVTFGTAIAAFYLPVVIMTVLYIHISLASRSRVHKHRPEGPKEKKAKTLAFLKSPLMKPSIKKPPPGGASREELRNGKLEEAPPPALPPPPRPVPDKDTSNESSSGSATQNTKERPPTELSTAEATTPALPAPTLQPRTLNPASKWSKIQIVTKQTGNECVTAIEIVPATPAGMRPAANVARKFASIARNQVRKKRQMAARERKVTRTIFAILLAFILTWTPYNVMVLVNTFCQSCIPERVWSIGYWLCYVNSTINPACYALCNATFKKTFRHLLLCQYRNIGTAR
# Method: (§1) Human, rat, or mouse M4. cDNA, along with the chimeric G protein Gqi5, were transfected into Chinese hamster ovary (CHO-K1) cells purchased from the American Type Culture Collection using Lipofectamine2000. M4/Gqi5/CHO cells were grown in Ham's F-12 medium containing 10% heat-inactivated fetal bovine serum (FBS), 20 mM HEPES, 500 μg/mL G418 sulfate, and 200 μg/mL Hygromycin B.
# (§2) For high throughput measurement of agonist-evoked increases in intracellular calcium, CHO-K1 cells stably expressing muscarinic receptors were plated in growth medium lacking G418 and hygromycin at 15,000 cells/20 μL/well in Greiner 384-well black-walled, tissue culture (TC)-treated, clear-bottom plates (VWR). Cells were incubated overnight at 37° C. and 5% CO2. The next day, cells were washed using an ELX 405 (BioTek) with assay buffer; the final volume was then aspirated to 20 μL. Next, 20 μL of a 2.3 μM stock of Fluo-4/acetoxymethyl ester (Invitrogen, Carlsbad, CA), prepared as a 2.3 mM stock in DMSO and mixed in a 1:1 ratio with 10% (w/v) Pluronic F-127 and diluted in assay buffer, was added to the wells and the cell plates were incubated for 50 min at 37° C. and 5% CO2. Dye was removed by washing with the ELX 405 and the final volume was aspirated to 20 μL. Compound master plates were formatted in a 10 point concentration-response curve (CRC) format (1:3 dilutions) in 100% DMSO with a starting concentration of 10 or 1 mM using a BRAVO liquid handler (Agilent). Test compound CRCs were then transferred to daughter plates (240 nL) using the Echo acoustic plate reformatter (Labcyte, Sunnyvale, CA) and then diluted into assay buffer (40 μL) to a 2× stock using a Thermo Fisher Combi (Thermo Fisher Scientific, Waltham, MA).
# (§3) Calcium flux was measured using the Functional Drug Screening System (FDSS) 6000 or 7000 (Hamamatsu Corporation, Tokyo, Japan) as an increase in the fluorescent static ratio. Compounds were applied to cells (20 μL, 2×) using the automated system of the FDSS at 2 seconds into the protocol and the data were collected at 1 Hz. At 143 s, 10 μL of an EC20 concentration of the muscarinic receptor agonist acetylcholine was added (5×), followed by the addition of 12 μL of an EC80 concentration of acetylcholine at the 268 s time point (5×). Agonist activity was analyzed as a concentration-dependent increase in calcium mobilization upon compound addition. Positive allosteric modulator activity was analyzed as a concentration-dependent increase in the EC20 acetylcholine response. Antagonist activity was analyzed as a concentration-dependent decrease in the EC80 acetylcholine response; for the purposes of the tables herein, an IC50 (inhibitory concentration 50) was calculated as a concentration-dependent decrease of the response elicited by an EC80 concentration of acetylcholine. Concentration-response curves were generated using a four-parameter logistical equation in XLFit curve fitting software (IDBS, Bridgewater, NJ) for Excel (Microsoft, Redmond, WA) or Prism (GraphPad Software, Inc., San Diego, CA) or the Dotmatics software platform (Dotmatics, Bishop's Stortford, UK).
# (§4) Compounds were synthesized as described above. Activity (IC50 and Emin) was determined in the mAChR M4 cell-based functional assay as described above and the data are shown in Table 2 and Table 3. The compound number corresponds to the compound numbers used in the examples and Tables 1 and 1.1.
# Human M4 = biological target: T2, Human M4 (Homo sapiens, UniProt P08173); assay: mAChR M4 cell-based functional calcium flux assay (human M4/Gqi5/CHO cells); conditions: for Emin (human M4): % ACh maximum at 30 μM; for IC50: decrease of the response to an EC80 concentration of acetylcholine
# T2 construct: expressed in transfected cells; host or cells: CHO-K1 (ATCC), stably expressing M4 and Gqi5
# T2 sequence (P08173 1-479): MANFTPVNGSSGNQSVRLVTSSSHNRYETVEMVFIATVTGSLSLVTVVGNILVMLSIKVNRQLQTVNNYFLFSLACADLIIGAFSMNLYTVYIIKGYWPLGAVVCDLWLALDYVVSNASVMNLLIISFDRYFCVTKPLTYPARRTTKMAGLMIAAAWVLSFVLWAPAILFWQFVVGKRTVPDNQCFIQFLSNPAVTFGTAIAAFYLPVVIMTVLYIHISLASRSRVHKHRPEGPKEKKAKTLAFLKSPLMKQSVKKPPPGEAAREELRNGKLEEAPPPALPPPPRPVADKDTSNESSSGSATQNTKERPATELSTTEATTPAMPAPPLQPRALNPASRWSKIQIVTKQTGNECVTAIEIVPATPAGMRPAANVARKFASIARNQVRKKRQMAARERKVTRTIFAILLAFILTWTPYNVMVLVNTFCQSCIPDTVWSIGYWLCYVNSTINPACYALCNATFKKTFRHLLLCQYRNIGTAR
# Method: as §1, §2, §3, §4
# [1] = cells printed in μM, decrease of the EC80 acetylcholine response
# [2] = decrease of the response to an EC80 concentration of acetylcholine
SMILES,Emin (rat M4) (Rat M4) [%],IC50 (Rat M4; [1]) [µM],IC50 (Rat M4; [2]) [µM],Emin (human M4) (Human M4) [%],IC50 (Human M4) [nM]
"CC(C)(C)CCN1CCC2(CC1)CC2COc1ccc(-c2cc(F)ccc2Cl)nn1 (centres unmarked) [Compound 77, 1-(((6-(2-chloro-5-fluorophenyl)pyridazin-3-yl)oxy)methyl)-6-(3,3-dimethylbutyl)-6-azaspiro[2.5]octane]",3,,0.288,,
"Cc1nn(C)cc1-c1nnc(NCC2CC23CCN(CCC(C)(C)C)CC3)c2ccccc12 (centres unmarked) [Compound 95, N-[[6-(3,3-dimethylbutyl)-6-azaspiro[2.5]octan-2-yl]methyl]-4-(1,3-dimethylpyrazol-4-yl)phthalazin-1-amine]",,,,5,2.55
"Cc1nn(C)cc1-c1nnc(NCC2CC23CCN(CC2CC4C=CC2C4)CC3)c2ccccc12 (centres unmarked) [Compound 96, N-[[6-(5-bicyclo[2.2.1]hept-2-enylmethyl)-6-azaspiro[2.5]octan-2-yl]methyl]-4-(1,3-dimethylpyrazol-4-yl)phthalazin-1-amine]",,,,5,2.96
"Fc1cccc(CN2CCC3(CC2)CC3CNc2ccc(-c3cc(F)ccc3Cl)nn2)c1 (centres unmarked) [Compound 97, 6-(2-chloro-5-fluoro-phenyl)-N-[[6-[(3-fluorophenyl)methyl]-6-azaspiro[2.5]octan-2-yl]methyl]pyridazin-3-amine]",,,,3,83.3
"N#Cc1ccccc1CN1CCC2(CC1)CC2CNc1ccc(-c2cc(F)ccc2Cl)nn1 (centres unmarked) [Compound 98, 2-[[2-[[[6-(2-chloro-5-fluoro-phenyl)pyridazin-3-yl]amino]methyl]-6-azaspiro[2.5]octan-6-yl]methyl]benzonitrile]",,,,5,524
"Fc1ccc(CN2CCC3(CC2)CC3CNc2ccc(-c3cc(F)ccc3Cl)nn2)cc1 (centres unmarked) [Compound 99, 6-(2-chloro-5-fluoro-phenyl)-N-[[6-[(4-fluorophenyl)methyl]-6-azaspiro[2.5]octan-2-yl]methyl]pyridazin-3-amine]",,,,3,88.2
"Fc1ccc(Cl)c(-c2ccc(NCC3CC34CCN(Cc3ccccc3F)CC4)nn2)c1 (centres unmarked) [Compound 100, 6-(2-chloro-5-fluoro-phenyl)-N-[[6-[(2-fluorophenyl)methyl]-6-azaspiro[2.5]octan-2-yl]methyl]pyridazin-3-amine]",,,,2,88.2
"Fc1ccc(Cl)c(-c2ccc(NCC3CC34CCN(Cc3ccccc3)CC4)nn2)c1 (centres unmarked) [Compound 101, N-[(6-benzyl-6-azaspiro[2.5]octan-2-yl)methyl]-6-(2-chloro-5-fluoro-phenyl)pyridazin-3-amine]",,,,3,69.2

# Next, values leading:
Emin (rat M4) (Rat M4) [%],IC50 (Rat M4; [1]) [µM],IC50 (Rat M4; [2]) [µM],Emin (human M4) (Human M4) [%],IC50 (Human M4) [nM],SMILES
26.5,> 10,,,,"Cc1cnn(C)c1-c1ccc(NCC2CC23CCN(CCC2CCCO2)CC3)nn1 (centres unmarked) [Compound 4, 6-(1,4-dimethyl-1H-pyrazol-5-yl)-N-((6-(2-(tetrahydrofuran-2-yl)ethyl)-6-azaspiro[2.5]octan-1-yl)methyl)pyridazin-3-amine]"
3.98,,0.012,,,"Cc1nn(C)cc1-c1ccc(NCC2CC23CCN(CC2CC4C=CC2C4)CC3)nn1 (centres unmarked) [Compound 9, N-[[6-(5-bicyclo[2.2.1]hept-2-enylmethyl)-6-azaspiro[2.5]octan-2-yl]methyl]-6-(1,3-dimethylpyrazol-4-yl)pyridazin-3-amine]"
3.57,,0.0478,,,"Cc1nn(C)cc1-c1ccc(NCC2CC23CCN(CC(C)C(C)(C)C)CC3)nn1 (centres unmarked) [Compound 10, 6-(1,3-dimethylpyrazol-4-yl)-N-[[6-(2,3,3-trimethylbutyl)-6-azaspiro[2.5]octan-2-yl]methyl]pyridazin-3-amine]"
29.9,> 10,,,,"Cc1cnn(C)c1-c1ccc(NCC2CC23CCN(CC2CCOCC2)CC3)nn1 (centres unmarked) [Compound 74, 6-(2,4-dimethylpyrazol-3-yl)-N-[[6-(tetrahydropyran-4-ylmethyl)-6-azaspiro[2.5]octan-2-yl]methyl]pyridazin-3-amine]"
,,,10,1200,"c1cc(N2CCOCC2)nnc1NCC1CC12CCN(CC1CCOCC1)CC2 (centres unmarked) [Compound 85, 6-morpholino-N-[[6-(tetrahydropyran-4-ylmethyl)-6-azaspiro[2.5]octan-2-yl]methyl]pyridazin-3-amine]"
3,,1.05,,,"Fc1ccc(Cl)c(-c2ccc(OCC3CC34CCN(CC3CCCCC3)CC4)nn2)c1 (centres unmarked) [Compound 87, 2-[[6-(2-chloro-5-fluoro-phenyl)pyridazin-3-yl]oxymethyl]-6-(cyclohexylmethyl)-6-azaspiro[2.5]octane]"
,,,9,4.61,"Cc1nn(C)cc1-c1nnc(NCC2CC23CCN(CC2CCOCC2)CC3)c2ccccc12 (centres unmarked) [Compound 93, 4-(1,3-dimethylpyrazol-4-yl)-N-[[6-(tetrahydropyran-4-ylmethyl)-6-azaspiro[2.5]octan-2-yl]methyl]phthalazin-1-amine]"
,,,5,16.1,"Cc1nn(C)cc1-c1nnc(NCC2CC23CCN(CC2CCCCC2)CC3)c2ccccc12 (centres unmarked) [Compound 94, N-[[6-(cyclohexylmethyl)-6-azaspiro[2.5]octan-2-yl]methyl]-4-(1,3-dimethylpyrazol-4-yl)phthalazin-1-amine]"
,,,2,127,"Fc1ccc(Cl)c(-c2ccc(NC[C@@H]3CC34CCN(Cc3ccccc3)CC4)nn2)c1 [Compound 112, N-[[(2R)-6-benzyl-6-azaspiro[2.5]octan-2-yl]methyl]-6-(2-chloro-5-fluoro-phenyl)pyridazin-3-amine]"
,,,2,88.3,"Fc1ccc(Cl)c(-c2ccc(NC[C@@H]3CC34CCN(Cc3ccccn3)CC4)nn2)c1 [Compound 113, 6-(2-chloro-5-fluoro-phenyl)-N-[[(2R)-6-(2-pyridylmethyl)-6-azaspiro[2.5]octan-2-yl]methyl]pyridazin-3-amine]"
,,,4,112,"CC(=O)Nc1ccc(-c2ccc(NC[C@H]3CC34CCN(CC3CCCCC3)CC4)nn2)cc1 [Compound 125, N-[4-[6-[[(2S)-6-(cyclohexylmethyl)-6-azaspiro[2.5]octan-2-yl]methylamino]pyridazin-3-yl]phenyl]acetamide]"
